According to patent US20250197388A1, “COMPOUNDS, PHARMACEUTICAL COMPOSITIONS AND METHODS FOR TREATING INFLAMMATORY BOWEL DISEASE” (FLAGSHIP PIONEERING INNOVATIONS VI, LLC, priority 2022, published 2025):

Assays:
[1] = test system: Zymosan-induced production of IL-12p40 in monocyte-derived dendritic cells; test: Monocyte derived DC (MoDC) assay, Zymosan-induced IL-12p40 (Luminex/ELISA); assay type: cell-based, human; conditions: for inhibition of Zymosan-induced production of IL-12p40: MoDC from healthy human donors 1, 2 and 3, 15.5 nM to 1 μM (FIGS. 6A-6C); for concentration of maximal inhibition of Zymosan-induced IL-12p40: donors 1, 2 and 3, the highest concentration tested
From the text: Monocyte derived DC (MoDC) were differentiated from healthy human donor derived CD14+ monocytes. Commercially available freshly prepared Leukopaks were obtained from healthy blood donor and kept refrigerated on ice before spin centrifuged and the pelleted cells are rinsed and resuspended with MACS buffer (Miltenyi Biotec). Next, CD14+ monocytes were purified using MultiMACS™ Cell24 Separator-Plus instrumentation and reagents according to the manufacturer (Miltenyi Biotec) instructions. The resulting purified CD14^+ cell fraction was washed, enumerated, and subsequently cryopreserved for later use. At the experiment first day cryopreserved CD14′ cells were thawed, rinsed with culture media, and then resuspended in culture media principally composed of RPMI (Invitrogen) supplemented with 10% v/v heat inactivated FBS. For generation of MoDC, these CD14^+ cells were enumerated and seeded into 75 cm^2 tissue culture flasks in 30 mL of culture media supplemented with GM-CSF (40-100 ng/mL) and IL-4 (25 ng/mL). Every other day, half of the culture media was replaced with fresh media (containing the same cytokine supplementation) and after 6-7 days of culture, fully differentiated and matured MoDC were obtained as confirmed by conventional Immuno-phenotype markers (levels of expression or absence of surface CD80, CD83, CD86, CD209, HLA-DR, CD14 & CD64) that were verified by flow-cytometry. Fully differentiated (mature) MoDCs, were seeded into 96 flat-well plates and incubated with a various concentration of the compound described herein, or with control solution (DMSO), or with the pharmacologic inhibitors Cyclosporin-A (CsA) and BAY 61-3606 (which is a known inhibitor of Syk kinase) for 6 hours. Next, the MoDC culture well were added with Dectin-1(CLEC7a1)-ligand (Zymosan at 5 μg/mL), or the Toll-like receptor agonist R848, and further incubated for 18-20 hours. After incubation concluded, culture supernatants were collected, and the levels of inflammatory cytokines and chemokines was measured in a triplicate setting for each condition by Luminex® multiplex assay (FIG. 2) or by ELISA (FIG. 3).

[2] = Compound interconversion monitored by 1H-NMR in neutral aqueous buffer; assay type: physicochemical; conditions: 37° C. in the neutral aqueous buffer
Experimental: This examples provide the kinetics of compounds A-2 and A-3. More specifically, A-6 is a mixture of compounds A-2 and A-3 and interconvert in solutions.
In this example, A-6 was combined with […] of Na3PO4, DCl, and D2O at a pH of 7-7.5. This solution was then monitored using 1H-NMR at 37° C.
Interconversion between compounds A-2 and A-3 was seen and monitored for 5 days. See, Table 1.

Dectin-1b = biological target: T1, Dectin-1b (Homo sapiens, UniProt Q9BXN2); test: Dectin-1 assay, HEK-Blue Dectin-1b SEAP reporter cells stimulated with beta-glucan peptide (BGP); assay type: cell-based; conditions: HEK-Blue Dectin-1b cells; compounds at 1, 10 or 30 μM for 6 hours, then BGP 30 μg/mL 16-18 hours; SEAP adjusted by cell viability
T1 construct: host or cells: HEK-Blue Dectin-1b reporter cells (HEK293-derived)
T1 sequence (Q9BXN2 1-201 isoform Q9BXN2-2): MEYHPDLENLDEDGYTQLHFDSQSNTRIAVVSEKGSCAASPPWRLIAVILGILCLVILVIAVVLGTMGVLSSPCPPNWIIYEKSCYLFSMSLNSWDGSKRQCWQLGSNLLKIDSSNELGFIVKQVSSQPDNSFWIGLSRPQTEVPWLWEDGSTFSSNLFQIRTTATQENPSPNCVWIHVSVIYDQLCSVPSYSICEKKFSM
Experimental: Compounds described herein are added to mammalian cells for bioactivity assessment. The HEK-Blue Dectin-1b cells line (InVivoGen) releases a reporter protein (secreted embryonic alkaline phosphatase, SEAP) to the culture supernatant in response to Dectin-1 activation. HEK-Blue reporter cells were grown in DMEM culture media with 10% decomplemented fetal calf serum (InvivoGen, 1% Pen/Strep antibiotic (InvivoGen), 0.2% Normocin antibiotic (InvivoGen). On the day prior to the assay, cells were seeded in a 96 flat-bottom well plate at 50,000 cells/well and further incubated for 20 hours. On the day of the assay cells were incubated with 1 μM, 10 μM or 30 μM of the compounds described herein or with 1 μM of the SYKi IV Dectin-1b Inhibitor (Millipore) or with DMSO (vehicle control) for 6 hours, followed by the addition of beta-glucan peptide (BGP, a Dectin-1 ligand at 30 μg/mL) and incubation for 16-18 hours. After incubation was concluded, the cultures supernatants were collected and Dectin-1 related activity was assessed by measurement of the SEAP-reporter protein presence, using Quanti-Blue assay (Invivogen) and these values were adjusted by the Cell Viability levels that was assessed using the Cell-Titer-Glo2 Reagent (Promega).
Results represent cell number adjusted SEAP levels in a triplicate setting for each condition and cell numbers and viability corrections reflected less than 5% corrections. See, e.g., FIG. 1 for compound A-3.

## CN1[C@@H](C(=O)O)CS[C@@H]1[C@@H]1CSC(c2ccccc2O)=N1 (single isomer, unassigned) [Compound A-2]
[1]
  inhibition of Zymosan-induced production of IL-12p40: inhibition
  concentration of maximal inhibition of Zymosan-induced IL-12p40: 1 µM
[2]
  time to nearly reach interconversion equilibrium: about 3 hours
Dectin-1b
  Activity: <30 µM

## CN1[C@@H](C(=O)O)CS[C@H]1[C@@H]1CSC(c2ccccc2O)=N1 (single isomer, unassigned) [Compound A-3]
[1]
  inhibition of Zymosan-induced production of IL-12p40: inhibition
  concentration of maximal inhibition of Zymosan-induced IL-12p40: 1 µM
[1]; primary human MoDC from healthy donors 5 and 6, 0.5 μM final concentration (FIGS. 11A, 11B)
  inhibition of zymosan-induced IL-12p40: does not achieve statistically significant inhibition
[2]
  equilibrium ratio of interconversion: about 1.5/1
  time to nearly reach interconversion equilibrium: about 7 hours
Dectin-1b
  Activity: <30 µM
